In ChEMBL document CHEMBL1833800, “Synthesis, preliminary biological evaluation and molecular modeling of some new heterocyclic inhibitors of TACE” (Eur J Med Chem, 2011):
pIC50: −log10 of the molar value.

What follows are compounds tested against Disintegrin and metalloproteinase domain-containing protein 17 (Homo sapiens, UniProt P78536) (assay: Inhibition of TACE in human whole blood assessed as reduction of LPS-induced TNFalpha production pretreated 15 mins before LPS challenge measured 5 hrs post LPS challenge).
Chain of Disintegrin and metalloproteinase domain-containing protein 17 (P78536 whole entry, the tested form may be a part): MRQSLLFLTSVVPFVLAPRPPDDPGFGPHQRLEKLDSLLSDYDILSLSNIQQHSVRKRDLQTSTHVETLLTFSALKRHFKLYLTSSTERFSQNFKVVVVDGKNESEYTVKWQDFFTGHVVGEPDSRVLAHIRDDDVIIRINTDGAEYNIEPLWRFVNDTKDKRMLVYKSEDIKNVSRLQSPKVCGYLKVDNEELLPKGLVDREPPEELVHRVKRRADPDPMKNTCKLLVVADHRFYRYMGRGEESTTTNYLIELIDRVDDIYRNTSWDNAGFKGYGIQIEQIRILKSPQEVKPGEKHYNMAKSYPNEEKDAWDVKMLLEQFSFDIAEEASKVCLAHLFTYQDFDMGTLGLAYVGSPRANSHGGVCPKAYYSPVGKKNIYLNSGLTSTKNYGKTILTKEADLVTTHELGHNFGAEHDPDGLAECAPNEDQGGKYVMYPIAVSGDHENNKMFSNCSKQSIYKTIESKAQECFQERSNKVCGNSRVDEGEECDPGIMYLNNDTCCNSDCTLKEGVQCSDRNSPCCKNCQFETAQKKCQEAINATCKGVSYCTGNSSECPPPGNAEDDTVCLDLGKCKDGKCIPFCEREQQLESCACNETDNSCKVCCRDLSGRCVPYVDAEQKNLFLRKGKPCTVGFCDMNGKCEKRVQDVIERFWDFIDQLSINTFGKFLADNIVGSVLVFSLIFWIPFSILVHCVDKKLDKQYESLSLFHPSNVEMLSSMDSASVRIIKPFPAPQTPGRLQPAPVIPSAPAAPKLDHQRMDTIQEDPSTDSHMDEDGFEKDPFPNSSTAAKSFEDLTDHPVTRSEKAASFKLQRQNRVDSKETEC

| pIC50 | Structure (SMILES) |
| --- | --- |
| 6.55 | O=C(N[C@@H]1CCCC[C@@H]1C(=O)NO)c1ccc(Cn2c(C(F)(F)F)nc3ccccc32)nc1 |
| 7.13 | O=C(N[C@@H]1CCC[C@@H]1C(=O)NO)c1ccc(Cn2c(C(F)(F)F)nc3ccccc32)nc1 (single isomer, unassigned) |

Further lines, the compound ahead of its results:

| Structure (SMILES) | pIC50 |
| --- | --- |
| Cc1nc2ccccc2n1Cc1ccc(C(=O)N[C@@H]2CCOC[C@@H]2C(=O)NO)cn1 | 7.10 |
| O=C(N[C@@H]1CCOC[C@@H]1C(=O)NO)c1ccc(Cn2c(C(F)(F)F)nc3ccccc32)nc1 | 6.80 |
| Cc1nc2ccccc2n1Cc1ccc(C(=O)N[C@@H]2CCCC[C@@H]2C(=O)NO)cn1 | 6.90 |
| Cc1nc2ccccc2n1Cc1ccc(C(=O)N[C@@H]2CCC[C@@H]2C(=O)NO)cn1 (single isomer, unassigned) | 7.15 |
